Consider 21 molecules from US20250304567A1, “PYRROLIDIONE DERIVATIVES AS INHIBITORS OF NF KAPPA B INDUCING KINASE” (priority 2022, published 2025).

Where two headings read alike, the source gives them in different places.

The target in assay [1] is Recombinant Human NF-kappaB-Inducing Kinase (NIK/MAP3K14) (Homo sapiens, UniProt Q99558). Put plainly: Inhibition of auto-phosphorylation of recombinant human NIK/MAP3K14 activity (AlphaScreen). To be noted: 5 μM ATP, 1 nM NIK, average if tested more than once. It counts as biochemical. The gist of the method: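 GST-tagged NIK (1 nM) auto-phosphorylation with 5 μM ATP, 2 h at 25 °C, pH 7.5 Tris buffer, 0.7% DMSO; stopped with anti-phospho-IKK Ser176/180 antibody and read by AlphaScreen. Signal normalized to full-activity and no-enzyme/no-ATP controls; IC50 from sigmoidal fit of % inhibition vs log concentration.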
Sequence of Recombinant Human NF-kappaB-Inducing Kinase (NIK/MAP3K14) (Q99558 whole entry): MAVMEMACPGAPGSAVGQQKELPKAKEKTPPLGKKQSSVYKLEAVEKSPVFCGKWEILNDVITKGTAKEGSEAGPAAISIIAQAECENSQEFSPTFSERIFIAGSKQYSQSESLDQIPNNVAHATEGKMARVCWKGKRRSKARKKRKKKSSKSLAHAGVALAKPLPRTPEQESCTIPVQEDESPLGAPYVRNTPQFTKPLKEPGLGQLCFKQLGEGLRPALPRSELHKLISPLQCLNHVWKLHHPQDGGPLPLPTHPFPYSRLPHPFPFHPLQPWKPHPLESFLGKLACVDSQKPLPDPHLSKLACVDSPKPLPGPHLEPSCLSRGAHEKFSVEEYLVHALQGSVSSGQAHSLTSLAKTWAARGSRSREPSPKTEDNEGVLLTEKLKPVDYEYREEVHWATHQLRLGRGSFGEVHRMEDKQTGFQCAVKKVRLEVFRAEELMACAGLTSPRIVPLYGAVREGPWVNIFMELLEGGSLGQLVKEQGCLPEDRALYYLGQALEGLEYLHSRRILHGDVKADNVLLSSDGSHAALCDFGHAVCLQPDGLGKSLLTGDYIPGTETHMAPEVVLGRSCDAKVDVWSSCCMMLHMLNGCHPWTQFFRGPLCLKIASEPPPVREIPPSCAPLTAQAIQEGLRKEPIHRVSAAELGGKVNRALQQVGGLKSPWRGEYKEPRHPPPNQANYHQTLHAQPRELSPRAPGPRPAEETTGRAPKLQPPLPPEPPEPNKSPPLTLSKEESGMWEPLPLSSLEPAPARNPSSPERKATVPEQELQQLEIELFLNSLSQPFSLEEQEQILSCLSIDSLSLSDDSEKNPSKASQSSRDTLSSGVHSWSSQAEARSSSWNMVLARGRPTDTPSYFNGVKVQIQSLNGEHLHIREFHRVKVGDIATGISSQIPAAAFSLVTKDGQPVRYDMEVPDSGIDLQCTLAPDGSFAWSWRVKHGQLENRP

Assay [2] deals with p-IKKa levels in L363 (NIK translocated multiple myeloma) cells. As to the kind of experiment: Effect of compounds on p-IKKa levels in L363 (NIK translocated multiple myeloma) cells (AlphaLISA SureFire Ultra p-IKKa Ser176/180). It counts as cell-based, human. The note with it: average if tested more than once, read-out: Assay 2 IC50. The gist of the method:
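L363 multiple myeloma cells, BAFF-stimulated overnight (250 ng/ml), then 6 h at 37 °C with compound (11-point 1:3 series, 0.3% DMSO) plus BAFF and 10 μM MG132. p-IKKa Ser176/180 read by AlphaLISA SureFire Ultra; IC50 from sigmoidal fit normalised to stimulated and unstimulated controls.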
(Bead proximity is the source of the signal in Alpha formats.)

Setting [3] is: Homo sapiens, L-363, p-IKKa levels in L363 cells.

In the case of `CN1CC[C@@](O)(c2ccnc(-c3csc(-c4ccnc(Nc5cnn(C)c5)n4)n3)c2)C1=O` (single isomer, unassigned) [Example 151], the IC50 in assay [1] and in assay [2] (setting [3]) was below 100 nM throughout.
For the molecule `CN1CC[C@@](O)(c2cncc(-c3csc(-c4ccnc(Nc5cnn(C)c5)n4)n3)c2)C1=O` (single isomer, unassigned) [Example 152, (R)-3-hydroxy-1-methyl-3-(5-(2-(2-((1-methyl-1H-pyrazol-4-yl)amino)pyrimidin-4-yl)thiazol-4-yl)pyridin-3-yl)pyrrolidin-2-one or (S)-3-hydroxy-1-methyl-3-(5-(2-(2-((1-methyl-1H-pyrazol-4-yl)amino)pyrimidin-4-yl)thiazol-4-yl)pyridin-3-yl)pyrrolidin-2-one], the IC50 (as a rule, the concentration that gives 50% inhibition) in assay [1] is below 100 nM; in assay [2] (setting [3]), 100 to 500 nM.
Regarding `CN1CC[C@@](O)(c2ccnc(-c3ccn(-c4ccnc(Nc5cnn6ccccc56)n4)n3)c2)C1=O` (single isomer, unassigned) [Example 153, (R)-3-hydroxy-1-methyl-3-(2-(1-(2-(pyrazolo[1,5-a]pyridin-3-ylamino)pyrimidin-4-yl)-1H-pyrazol-3-yl)pyridin-4-yl)pyrrolidin-2-one or (S)-3-hydroxy-1-methyl-3-(2-(1-(2-(pyrazolo[1,5-a]pyridin-3-ylamino)pyrimidin-4-yl)-1H-pyrazol-3-yl)pyridin-4-yl)pyrrolidin-2-one], the IC50 in assay [1] and in assay [2] (setting [3]) was below 100 nM each time.
As to `CN1CC[C@@](O)(c2ccnc(-c3ccn(-c4ccnc(Nc5cn(CC(F)F)nc5OC5CC5)n4)n3)c2)C1=O` (single isomer, unassigned) [Example 154, (R)-3-(2-(1-(2-((3-cyclopropoxy-1-(2,2-difluoroethyl)-1H-pyrazol-4-yl)amino)pyrimidin-4-yl)-1H-pyrazol-3-yl)pyridin-4-yl)-3-hydroxy-1-methylpyrrolidin-2-one or (S)-3-(2-(1-(2-((3-cyclopropoxy-1-(2,2-difluoroethyl)-1H-pyrazol-4-yl)amino)pyrimidin-4-yl)-1H-pyrazol-3-yl)pyridin-4-yl)-3-hydroxy-1-methylpyrrolidin-2-one], the IC50 in assay [1] and in assay [2] (setting [3]) was below 100 nM throughout.
Turning to `COc1nn(CC(F)F)cc1Nc1nccc(-n2ccc(-c3cc([C@]4(O)CCN(C)C4=O)ccn3)n2)n1` (single isomer, unassigned) [Example 155, (R)-3-(2-(1-(2-((1-(2,2-difluoroethyl)-3-methoxy-1H-pyrazol-4-yl)amino)pyrimidin-4-yl)-1H-pyrazol-3-yl)pyridin-4-yl)-3-hydroxy-1-methylpyrrolidin-2-one or (S)-3-(2-(1-(2-((1-(2,2-difluoroethyl)-3-methoxy-1H-pyrazol-4-yl)amino)pyrimidin-4-yl)-1H-pyrazol-3-yl)pyridin-4-yl)-3-hydroxy-1-methylpyrrolidin-2-one], the IC50 in assay [1] and in assay [2] (setting [3]) was below 100 nM throughout.
For the molecule `C[C@H](Nc1nccc(-c2nc(-c3cc([C@]4(O)CCN(C)C4=O)ccn3)cs2)n1)c1ccn(C)n1` (single isomer, unassigned) [Example 156, (R)-3-hydroxy-1-methyl-3-(2-(2-(2-(((S)-1-(1-methyl-1H-pyrazol-3-yl)ethyl)amino)pyrimidin-4-yl)thiazol-4-yl)pyridin-4-yl)pyrrolidin-2-one or (S)-3-hydroxy-1-methyl-3-(2-(2-(2-(((S)-1-(1-methyl-1H-pyrazol-3-yl)ethyl)amino)pyrimidin-4-yl)thiazol-4-yl)pyridin-4-yl)pyrrolidin-2-one], the IC50 in assay [1] was below 100 nM; in assay [2] (setting [3]), 100 to 500 nM.
For `C[C@@H](Nc1nccc(-c2nc(-c3cc([C@]4(O)CCN(C)C4=O)ccn3)cs2)n1)c1ccn(C)n1` (single isomer, unassigned) [Example 157, (R)-3-hydroxy-1-methyl-3-(2-(2-(2-(((R)-1-(1-methyl-1H-pyrazol-3-yl)ethyl)amino)pyrimidin-4-yl)thiazol-4-yl)pyridin-4-yl)pyrrolidin-2-one or (S)-3-hydroxy-1-methyl-3-(2-(2-(2-(((R)-1-(1-methyl-1H-pyrazol-3-yl)ethyl)amino)pyrimidin-4-yl)thiazol-4-yl)pyridin-4-yl)pyrrolidin-2-one], in that order: 100 to 500 nM and above 501 nM.
The like results for `CC(Nc1nccc(-c2nc(-c3cc([C@]4(O)CCN(C)C4=O)ccn3)cs2)n1)c1cnn(C)c1` (single isomer, unassigned) [Example 158, (R)-3-hydroxy-1-methyl-3-(2-(2-(2-(((R,S)-1-(1-methyl-1H-pyrazol-4-yl)ethyl)amino)pyrimidin-4-yl)thiazol-4-yl)pyrrolid-4-yl)pyrrolidine-2-one or (S)-3-hydroxy-1-methyl-3-(2-(2-(2-(((R,S)-1-(1-methyl-1H-pyrazol-4-yl)ethyl)amino)pyrimidin-4-yl)thiazol-4-yl)pyrrolid-4-yl)pyrrolidine-2-one] were, in that order, below 100 nM and 100 to 500 nM.
As to `CN1C[C@H](Nc2nccc(-c3csc(-c4cccc([C@]5(O)CCN(C)C5=O)c4)n3)n2)CC1=O` (single isomer, unassigned) [Example 234], the IC50 was 100 to 500 nM in assay [1] and above 501 nM in assay [2] (setting [3]).
For `CN1C[C@@H](Nc2nccc(-c3csc(-c4cccc([C@]5(O)CCN(C)C5=O)c4)n3)n2)CC1=O` (single isomer, unassigned) [Example 235], the IC50 was below 100 nM in assay [1] and above 501 nM in assay [2] (setting [3]).
As to `C[C@@H](Nc1nccc(-c2csc(-c3cccc([C@]4(O)CCN(C)C4=O)c3)n2)n1)c1cn[nH]c1` (single isomer, unassigned) [Example 293], the IC50 in assay [1] was below 100 nM; in assay [2] (p-IKKa levels in L363 cells) it was 100 to 500 nM.
The like results for `C[C@H](Nc1nccc(-c2csc(-c3cccc([C@]4(O)CCN(C)C4=O)c3)n2)n1)c1cn[nH]c1` (single isomer, unassigned) [Example 294] were, in that order, below 100 nM and above 501 nM.
For `CN1CC[C@@](O)(c2cccc(-c3nc(-c4ccnc(Nc5ccn(C)n5)n4)co3)c2)C1=O` [Example 1, (R)-3-hydroxy-1-methyl-3-(3-(4-(2-((1-methyl-1H-pyrazol-3-yl)amino)pyrimidin-4-yl)oxazol-2-yl)phenyl)pyrrolidin-2-one], the IC50 in assay [1] is below 100 nM; in assay [2] (setting [3]), 100 to 500 nM.
Regarding `CN1CC[C@@](O)(c2cccc(-c3ccn(-c4ccnc(Nc5ccn(C)n5)n4)n3)c2)C1=O` [Example 2, (R)-3-hydroxy-1-methyl-3-(3-(1-(2-((1-methyl-1H-pyrazol-3-yl)amino)pyrimidin-4-yl)-1H-pyrazol-3-yl)phenyl)pyrrolidin-2-one], the IC50 was below 100 nM in assay [1] and 100 to 500 nM in assay [2] (setting [3]).
The like results for `CN1CC[C@@](O)(c2cccc(-c3csc(-c4ccnc(Nc5ccn(C)n5)n4)n3)c2)C1=O` [Example 3, (R)-3-hydroxy-1-methyl-3-(3-(2-(2-((1-methyl-1H-pyrazol-3-yl)amino)pyrimidin-4-yl)thiazol-4-yl)phenyl)pyrrolidin-2-one] were, in that order, below 100 nM and below 100 nM.
Turning to `CN1CC[C@@](O)(c2cccc(-c3coc(-c4ccnc(Nc5ccn(C)n5)n4)n3)c2)C1=O` [Example 4, (R)-3-hydroxy-1-methyl-3-(3-(2-(2-((1-methyl-1H-pyrazol-3-yl)amino)pyrimidin-4-yl)oxazol-4-yl)phenyl)pyrrolidin-2-one], the values for the IC50 in assay [1] and in assay [2] (setting [3]) were below 100 nM and above 501 nM, respectively.
As for `CN1CC[C@@](O)(c2cccc(-c3csc(-c4ccnc(Nc5ccnn5C)n4)n3)c2)C1=O` [Example 5, (R)-3-hydroxy-1-methyl-3-(3-(2-(2-((1-methyl-1H-pyrazol-5-yl)amino)pyrimidin-4-yl)thiazol-4-yl)phenyl)pyrrolidin-2-one], the IC50 in assay [1] and in assay [2] (setting [3]) was below 100 nM each time.
Consider `CN1CC[C@@](O)(c2cccc(-c3nc(-c4ccnc(N)n4)cs3)c2)C1=O` [Example 6, (R)-3-(3-(4-(2-Aminopyrimidin-4-yl)thiazol-2-yl)phenyl)-3-hydroxy-1-methylpyrrolidin-2-one], for which the figures for the IC50 in assay [1] and in assay [2] (setting [3]) were 100 to 500 nM and above 501 nM, respectively.
In the case of `COc1ncccc1Nc1nccc(-c2csc(-c3cccc([C@]4(O)CCN(C)C4=O)c3)n2)n1` [Example 7, (R)-3-Hydroxy-3-(3-(4-(2-((2-methoxypyridin-3-yl)amino)pyrimidin-4-yl)thiazol-2-yl)phenyl)-1-methylpyrrolidin-2-one], the IC50 in assay [1] was below 100 nM; in assay [2] (setting [3]) it was 100 to 500 nM.
As to `Cc1ncc(C#N)cc1Nc1nccc(-c2csc(-c3cccc([C@]4(O)CCN(C)C4=O)c3)n2)n1` [Example 8, (R)-5-((4-(2-(3-(3-Hydroxy-1-methyl-2-oxopyrrolidin-3-yl)phenyl)thiazol-4-yl)pyrimidin-2-yl)amino)-6-methylnicotinonitrile], the values for the IC50 in assay [1] and in assay [2] (setting [3]) were below 100 nM and 100 to 500 nM, respectively.
In the case of `CN1CC[C@@](O)(c2cccc(-c3nc(-c4ccnc(Nc5cn(CC(F)F)nc5OC5CC5)n4)cs3)c2)C1=O` [Example 9, (R)-3-(3-(4-(2-((3-Cyclopropoxy-1-(2,2-difluoroethyl)-1H-pyrazol-4-yl)amino)pyrimidin-4-yl)thiazol-2-yl)phenyl)-3-hydroxy-1-methylpyrrolidin-2-one], the IC50 in assay [1] and in assay [2] (setting [3]) was below 100 nM each time.
